This is an account of results in US20100284966A1 (priority 2005, published 2010).

The structures appear in SMILES notation.

The data set concerns HCV replicon.

On to `Cn1cnc([N+](=O)[O-])c1Sc1ncnc2[nH]cnc12` [AZA], for which the “fewer cells (toxicity)” value is ~10%.
